The target in one experiment is PCSK9 (Homo sapiens, UniProt Q8NBP7). Description: PCSK9 Alexa FRET Standard assay (displacement of AlexaFluor647 tagged cyclic peptide Reagent A). It counts as binding. The settings on record: 0.5 nM PCSK9, 20 nM AF cyclic peptide Reagent A. The method, then:
A solution containing 1 nM biotinylated PCSK9+2.5 nM Lance Streptavidin Europium (Strep-Eu) was made in 50 mM HEPES pH 7.4, 0.15 M NaCl, 5 mM CaCl2), 0.01% BSA, and 0.01% Surfactant P20. A separate solution containing 40 nM of the AlexaFluor tagged cyclic peptide was made in the same buffer system. An Echo was used to transfer 0.750 ul of compound to an assay plate followed by the addition of 15 ul of PCSK9+Stept-Eu and 15 ul of AF peptide. The final assay volume was 30.750 ul containing 0.5 nM PCSK9, 1.25 nM Strep-Eu, and 20 nM AF cyclic peptide. The reaction was incubated at room temperature for at least two hours prior to fluorescence measurements using an Envision Multilabel Reader. IC50 values were determined by fitting data to a sigmoidal dose-response curve using nonlinear regression. Ki was then calculated from the IC50 and the KD of AF cyclic peptide. Counts (B-counts) of the europium-labeled PCSK9 were followed to observe if compounds were […]. A fall off of the B-counts likely indicated a false positive of inhibition. Data from this procedure was reported as “A=‘numerical value’ (nanomolar)”

Experiment [1] deals with human PCSK9 / human LDLR EGFa domain interaction (Homo sapiens, UniProt Q8NBP7). Description: TR-FRET assay of inhibition of the PCSK9-LDLR protein-protein interaction. It counts as binding. The settings on record: 20 nM avitag-biotinylated human PCSK9, 20 nM his-tagged human LDLR EGFa domain, 2 hours, room temperature. The method, then:
A time-resolved fluorescence resonance energy (TR-FRET) assay was used to measure inhibition of the PCSK9-LDLR protein-protein interaction. Briefly, 20 nM avitag-biotinylated human PCSK9 was incubated with 20 nM his-tagged human LDLR EGFa domain in the presence of 5 nM LANCE Ulight Streptavidin (Perkin Elmer) and 5 nM europium-Anti-6×His (Perkin Elmer) for 2 hours covered at room temperature in buffer containing 50 mM HEPES, 150 mM NaCl, 5 mM CaCl2), 0.01% BSA and 0.01% Surfactant P20. Compounds were tested in dose-response and concentrations giving half-maximal inhibition calculated using a 4-parameter fit equation.
Background: TR-FRET usually uses a lanthanide donor and a delayed reading to cut background.

Numbered stars: 1 amine (or outer) side, 2 acyl side, 3 side chain; on linkers, the order of the positions; unused ones are H or OH. Bridge positions count the residues as written; N and C are the ends. Square brackets hold non-standard residues; d marks the D form. Peptide text beside a SMILES is read from it. Phe(4-guanidino) = N=C(N)Nc1ccc(C[C@H](N)C(=O)O)cc1; Trp(7-aza) = N[C@@H](Cc1c[nH]c2ncccc12)C(=O)O; Gly(piperidin-4-yl) = N[C@H](C(=O)O)C1CCNCC1; Leu(3R-OH) = CC(C)[C@@H](O)[C@H](N)C(=O)O; dBip = N[C@H](Cc1ccc(-c2ccccc2)cc1)C(=O)O; X1 = C[C@@](N[*:1])(C(=O)[*:2])c1ccccc1; mXylylene = c1cc(C[*:1])cc(C[*:2])c1; 2Pal = N[C@@H](Cc1ccccn1)C(=O)O; 3Pal = N[C@@H](Cc1cccnc1)C(=O)O; Tle = CC(C)(C)[C@H](N)C(=O)O; Iva = CC[C@](C)(N)C(=O)O; Ac5c = NC1(C(=O)O)CCCC1; Nva = CCC[C@H](N)C(=O)O; Thp = NC1(C(=O)O)CCOCC1; Aib = CC(C)(N)C(=O)O; Mpa = O=C(O)CCS

Usually IC50 stands for the concentration at which inhibition is half-maximal. A low value points to greater potency.

PCSK9, sequence (Q8NBP7 153-692): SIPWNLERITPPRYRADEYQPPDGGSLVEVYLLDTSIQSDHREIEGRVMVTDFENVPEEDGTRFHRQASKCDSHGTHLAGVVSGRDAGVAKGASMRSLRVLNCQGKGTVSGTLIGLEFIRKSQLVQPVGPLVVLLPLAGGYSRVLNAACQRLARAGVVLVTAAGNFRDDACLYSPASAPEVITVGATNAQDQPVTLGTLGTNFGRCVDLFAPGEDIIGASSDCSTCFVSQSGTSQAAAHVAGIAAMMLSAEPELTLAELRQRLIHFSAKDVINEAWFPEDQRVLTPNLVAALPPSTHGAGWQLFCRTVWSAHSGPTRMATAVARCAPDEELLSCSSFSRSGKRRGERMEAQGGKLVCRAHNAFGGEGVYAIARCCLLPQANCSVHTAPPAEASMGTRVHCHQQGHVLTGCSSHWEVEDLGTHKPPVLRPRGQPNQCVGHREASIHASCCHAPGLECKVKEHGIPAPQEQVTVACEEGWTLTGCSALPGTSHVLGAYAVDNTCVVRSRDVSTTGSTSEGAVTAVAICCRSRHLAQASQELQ
human PCSK9 / human LDLR EGFa domain interaction, sequence (Q8NBP7 153-692): as above
human PCSK9 / human LDLR EGFa domain interaction, sequence (Q8NBP7 31-152 partner limits assumed): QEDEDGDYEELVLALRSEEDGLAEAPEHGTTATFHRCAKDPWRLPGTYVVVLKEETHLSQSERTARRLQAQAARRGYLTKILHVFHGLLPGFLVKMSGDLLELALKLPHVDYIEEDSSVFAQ

Turning to `CCC[C@@H]1NC(=O)[C@H](Cc2c[nH]c3ncccc23)NC(=O)[C@H]([C@@H](C)O)NC(=O)C(C)(C)NC(=O)[C@H](Cc2ccc(O)cc2)NC(=O)[C@H](C(C)(C)C)NC(=O)CCSCc2cccc(c2)CSC[C@@H](C(N)=O)NC(=O)[C@H]([C@@H](C)O)NC(=O)[C@H](CCC)NC(=O)[C@H](Cc2ccc(O)cc2)NC(=O)[C@H](CCC(=O)O)NC1=O` [Compound 005] ([Mpa][Tle]Y[Aib]T[Trp(7-aza)][Nva]EY[Nva]TC-NH2; linker 1-12 via mXylylene), the IC50 on PCSK9 lay within 21 to 50 µM.
Still for that read-out and setting: to `CCC[C@@H]1NC(=O)[C@H](Cc2c[nH]c3ncccc23)NC(=O)[C@H]([C@@H](C)O)NC(=O)[C@H](Cc2cccnc2)NC(=O)[C@H](Cc2ccc(O)cc2)NC(=O)[C@H](C(C)(C)C)NC(=O)CCSCc2cccc(c2)CSC[C@@H](C(N)=O)NC(=O)[C@H]([C@@H](C)O)NC(=O)[C@H](CCC)NC(=O)[C@H](Cc2ccc(O)cc2)NC(=O)[C@H](CCC(=O)O)NC1=O` [Compound 113] ([Mpa][Tle]Y[3Pal]T[Trp(7-aza)][Nva]EY[Nva]TC-NH2; linker 1-12 via mXylylene) belongs 50 to 100 µM; to `CCC[C@@H]1NC(=O)[C@H](Cc2c[nH]c3ncccc23)NC(=O)[C@H]([C@@H](C)O)NC(=O)[C@H](Cc2ccccn2)NC(=O)[C@H](Cc2ccc(O)cc2)NC(=O)[C@H](C(C)(C)C)NC(=O)CCSCc2cccc(c2)CSC[C@@H](C(N)=O)NC(=O)[C@H]([C@@H](C)O)NC(=O)[C@H](CCC)NC(=O)[C@H](Cc2ccc(O)cc2)NC(=O)[C@H](CCC(=O)O)NC1=O` [Compound 114] ([Mpa][Tle]Y[2Pal]T[Trp(7-aza)][Nva]EY[Nva]TC-NH2; linker 1-12 via mXylylene), 21 to 50 µM.
On PCSK9, `CCC[C@H](NC(C)=O)C(=O)N[C@H]1CSCc2cccc(c2)CSC[C@@H](C(N)=O)NC(=O)[C@H]([C@@H](C)O)NC(=O)[C@H](CCC)NC(=O)[C@H](Cc2ccc(O)cc2)NC(=O)[C@H](CCC(=O)O)NC(=O)[C@H](CCC)NC(=O)[C@H](C)NC(=O)[C@H]([C@@H](C)O)NC(=O)[C@H](Cc2cnc[nH]2)NC(=O)[C@H](Cc2ccc(O)cc2)NC(=O)[C@H](C(C)(C)C)NC1=O` [Compound 230] (Ac-[Nva]C[Tle]YHTA[Nva]EY[Nva]TC-NH2; linker 2-13 via mXylylene) had an IC50 of 50 to 100 µM.
In turn, `CC(=O)N[C@H]1CSCc2cccc(c2)CSC[C@@H](C(N)=O)NC(=O)[C@H]([C@@H](C)O)NC(=O)[C@H](C)NC(=O)[C@H](Cc2ccc(O)cc2)NC(=O)[C@H](CCC(=O)O)NC(=O)[C@H](C)NC(=O)[C@H](Cc2c[nH]c3ncccc23)NC(=O)[C@H]([C@@H](C)O)NC(=O)[C@H](Cc2c[nH]cn2)NC(=O)[C@H](Cc2ccc(O)cc2)NC(=O)[C@H](C(C)(C)C)NC1=O` [Compound 242] (Ac-C[Tle]YHT[Trp(7-aza)]AEYATC-NH2; linker 1-12 via mXylylene) registered an IC50 at PCSK9 of 1 to 21 µM.
In experiment [1], `CCC[C@@H]1NC(=O)[C@H](Cc2c[nH]c3ncccc23)NC(=O)[C@H](CC(N)=O)NC(=O)[C@H](Cc2c[nH]cn2)NC(=O)[C@H](Cc2ccc(O)cc2)NC(=O)[C@H](C(C)(C)C)NC(=O)CCSCc2cccc(c2)CSC[C@@H](C(N)=O)NC(=O)[C@H]([C@@H](C)O)NC(=O)[C@H](CCC)NC(=O)[C@H](Cc2ccc(O)cc2)NC(=O)[C@H](CCC(=O)O)NC1=O` [Compound 287] ([Mpa][Tle]YHN[Trp(7-aza)][Nva]EY[Nva]TC-NH2; linker 1-12 via mXylylene) displayed an IC50 of 0.1 to 1 µM.
In the case of `CCC[C@@H]1NC(=O)[C@H](Cc2ccc(O)cc2)NC(=O)[C@H](CCC(=O)O)NC(=O)[C@](C)(CC)NC(=O)[C@H](Cc2c[nH]c3ncccc23)NC(=O)[C@H]([C@@H](C)O)NC(=O)[C@H](Cc2c[nH]cn2)NC(=O)[C@H](Cc2ccc(O)cc2)NC(=O)[C@H](C(C)(C)C)NC(=O)CCSCc2cccc(c2)CSC[C@@H](C(N)=O)NC(=O)[C@H]([C@@H](C)O)NC1=O` [Compound 291] ([Mpa][Tle]YHT[Trp(7-aza)][Iva]EY[Nva]TC-NH2; linker 1-12 via mXylylene), the IC50 in experiment [1] lay in the range of 0.1 to 1 µM.
On to `C[C@@H](O)[C@@H]1NC(=O)[C@H](Cc2c[nH]cn2)NC(=O)[C@H](Cc2ccc(O)cc2)NC(=O)[C@H](C(C)(C)C)NC(=O)CCSCc2cccc(c2)CSC[C@@H](C(N)=O)NC(=O)[C@H]([C@@H](C)O)NC(=O)[C@](C)(c2ccccc2)NC(=O)[C@H](Cc2ccc(O)cc2)NC(=O)[C@H](CCC(=O)O)NC(=O)C(C)(C)NC(=O)[C@H](Cc2c[nH]c3ncccc23)NC1=O` [Compound 293] ([Mpa][Tle]YHT[Trp(7-aza)][Aib]EY[X1]TC-NH2; linker 1-12 via mXylylene), for which, in experiment [1], the IC50 fell in the range of 0.001 to 0.1 µM.
`CCC[C@@H]1NC(=O)[C@H](Cc2ccc(O)cc2)NC(=O)[C@H](CCC(=O)O)NC(=O)C2(CCCC2)NC(=O)[C@H](Cc2c[nH]c3ncccc23)NC(=O)[C@H]([C@@H](C)O)NC(=O)[C@H](Cc2c[nH]cn2)NC(=O)[C@H](Cc2ccc(O)cc2)NC(=O)[C@H](C(C)(C)C)NC(=O)CCSCc2cccc(c2)CSC[C@@H](C(N)=O)NC(=O)[C@H]([C@@H](C)O)NC1=O` [Compound 299] ([Mpa][Tle]YHT[Trp(7-aza)][Ac5c]EY[Nva]TC-NH2; linker 1-12 via mXylylene) yielded a 50% inhibitory concentration (IC50) in experiment [1] of 0.1 to 1 µM.
Still for that read-out and setting: the figure for `CCC[C@@H]1NC(=O)[C@H](Cc2ccc(O)cc2)NC(=O)[C@H](CCC(=O)O)NC(=O)C2(CCOCC2)NC(=O)[C@H](Cc2c[nH]c3ncccc23)NC(=O)[C@H]([C@@H](C)O)NC(=O)[C@H](Cc2c[nH]cn2)NC(=O)[C@H](Cc2ccc(O)cc2)NC(=O)[C@H](C(C)(C)C)NC(=O)CCSCc2cccc(c2)CSC[C@@H](C(N)=O)NC(=O)[C@H]([C@@H](C)O)NC1=O` [Compound 300] ([Mpa][Tle]YHT[Trp(7-aza)][Thp]EY[Nva]TC-NH2; linker 1-12 via mXylylene) is 0.1 to 1 µM; for `CCC[C@@H]1NC(=O)[C@H](Cc2c[nH]c3ncccc23)NC(=O)[C@H]([C@H](O)C(C)C)NC(=O)[C@H](Cc2c[nH]cn2)NC(=O)[C@H](Cc2ccc(O)cc2)NC(=O)[C@H](C(C)(C)C)NC(=O)CCSCc2cccc(c2)CSC[C@@H](C(N)=O)NC(=O)[C@H]([C@@H](C)O)NC(=O)[C@H](CCC)NC(=O)[C@H](Cc2ccc(O)cc2)NC(=O)[C@H](CCC(=O)O)NC1=O` [Compound 305] ([Mpa][Tle]YH[Leu(3R-OH)][Trp(7-aza)][Nva]EY[Nva]TC-NH2; linker 1-12 via mXylylene) it is 1 to 21 µM; for `CCC[C@@H]1NC(=O)[C@H](Cc2c[nH]c3ncccc23)NC(=O)[C@H]([C@@H](C)O)NC(=O)[C@H](Cc2c[nH]cn2)NC(=O)[C@H](Cc2ccc(O)cc2)NC(=O)[C@H](C(C)(C)C)NC(=O)CCSCc2cccc(c2)CSC[C@@H](C(N)=O)NC(=O)[C@H]([C@@H](C)O)NC(=O)[C@H](CCC)NC(=O)[C@H](Cc2ccc(NC(=N)N)cc2)NC(=O)[C@H](CCC(=O)O)NC1=O` [Compound 323] ([Mpa][Tle]YHT[Trp(7-aza)][Nva]E[Phe(4-guanidino)][Nva]TC-NH2; linker 1-12 via mXylylene) it is 1 to 21 µM.
Take `CCC[C@@H]1NC(=O)[C@H](Cc2c[nH]c3ncccc23)NC(=O)[C@H]([C@@H](C)O)NC(=O)[C@H](Cc2c[nH]cn2)NC(=O)[C@H](Cc2ccc(O)cc2)NC(=O)[C@H](C(C)(C)C)NC(=O)CCSCc2cccc(c2)CSC[C@@H](C(N)=O)NC(=O)[C@H]([C@@H](C)O)NC(=O)[C@H](CCC)NC(=O)[C@@H](Cc2ccc(-c3ccccc3)cc2)NC(=O)[C@H](CCC(=O)O)NC1=O` [Compound 325] ([Mpa][Tle]YHT[Trp(7-aza)][Nva]E[dBip][Nva]TC-NH2; linker 1-12 via mXylylene): the IC50 in experiment [1] fell in the range of 0.1 to 1 µM.
Molecule `CCC[C@@H]1NC(=O)[C@H](Cc2c[nH]c3ncccc23)NC(=O)[C@H]([C@@H](C)O)NC(=O)[C@H](Cc2c[nH]cn2)NC(=O)[C@H](Cc2ccc(O)cc2)NC(=O)[C@H](C(C)(C)C)NC(=O)CCSCc2cccc(c2)CSC[C@@H](C(N)=O)NC(=O)[C@H]([C@@H](C)O)NC(=O)[C@H](C2CCNCC2)NC(=O)[C@H](Cc2ccc(O)cc2)NC(=O)[C@H](CCC(=O)O)NC1=O` [Compound 331] ([Mpa][Tle]YHT[Trp(7-aza)][Nva]EY[Gly(piperidin-4-yl)]TC-NH2; linker 1-12 via mXylylene) gave an IC50 in experiment [1] of 1 to 21 µM.
Regarding `CCC[C@@H]1NC(=O)[C@H](Cc2c[nH]c3ncccc23)NC(=O)[C@H]([C@@H](C)OC)NC(=O)[C@H](Cc2c[nH]cn2)NC(=O)[C@H](Cc2ccc(O)cc2)NC(=O)[C@H](C(C)(C)C)NC(=O)CCSCc2cccc(c2)CSC[C@@H](C(N)=O)NC(=O)[C@H]([C@@H](C)O)NC(=O)[C@H](CCC)NC(=O)[C@H](Cc2ccc(O)cc2)NC(=O)[C@H](CCC(=O)O)NC1=O` [Compound 333] ([Mpa][Tle]YHT(Me)[Trp(7-aza)][Nva]EY[Nva]TC-NH2; linker 1-12 via mXylylene), the IC50 in experiment [1] fell in the range of 1 to 21 µM.

The values above are taken from US11814444B2, “Cyclic polypeptides for PCSK9 inhibition” (Ra Pharmaceuticals, Inc., priority 2018, dated 2023).
